Drawing on ChEMBL document CHEMBL1275279, “Synthesis, biological assay in vitro and molecular docking studies of new imidazopyrazinone derivatives as potential dipeptidyl peptidase IV inhibitors” (Eur J Med Chem, 2010), this text covers IC50 for 1 compound.

The test has as its target Dipeptidyl peptidase 4 (Homo sapiens) (UniProt P27487).

Chain of Dipeptidyl peptidase 4 (Homo sapiens) (P27487 whole entry, looked up): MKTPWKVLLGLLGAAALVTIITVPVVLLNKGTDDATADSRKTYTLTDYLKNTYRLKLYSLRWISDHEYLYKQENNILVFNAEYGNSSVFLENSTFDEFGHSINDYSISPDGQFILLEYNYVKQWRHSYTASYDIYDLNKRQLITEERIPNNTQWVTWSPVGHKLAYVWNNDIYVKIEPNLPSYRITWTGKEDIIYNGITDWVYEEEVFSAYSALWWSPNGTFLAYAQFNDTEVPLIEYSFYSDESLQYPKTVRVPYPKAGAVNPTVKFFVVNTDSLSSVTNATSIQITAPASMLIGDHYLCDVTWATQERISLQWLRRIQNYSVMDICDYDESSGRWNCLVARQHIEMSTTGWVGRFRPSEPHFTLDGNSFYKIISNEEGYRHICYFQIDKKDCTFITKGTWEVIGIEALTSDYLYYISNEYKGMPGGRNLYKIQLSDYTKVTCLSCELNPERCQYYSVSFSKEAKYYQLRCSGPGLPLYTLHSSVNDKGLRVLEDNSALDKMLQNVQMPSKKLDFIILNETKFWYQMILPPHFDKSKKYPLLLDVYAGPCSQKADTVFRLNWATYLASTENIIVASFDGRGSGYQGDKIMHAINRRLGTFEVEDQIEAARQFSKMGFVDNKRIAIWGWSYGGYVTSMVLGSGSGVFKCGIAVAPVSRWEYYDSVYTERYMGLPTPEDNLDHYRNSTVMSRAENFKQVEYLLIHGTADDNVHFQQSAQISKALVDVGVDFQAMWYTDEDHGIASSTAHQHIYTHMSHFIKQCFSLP
Description: Inhibition of human seminal fluid DPP4

As to `NC(=O)c1cccc(CN2CC3CN(C(=O)C[C@H](N)Cc4cc(F)c(F)cc4F)CCN3C2=O)c1` (stereo partly specified), the concentration for half-maximal inhibition (IC50) – broadly, the concentration that gives 50% inhibition – amounted to 78 nM.
